According to patent US20230226072A1 (priority 2020, published 2023):

Test system: Influenza A N1H1
Assay: In vivo antiviral efficacy in Balb/c mice, lung virus titer by TCID50 assay
Conditions: methylene blue replaced by riboflavin; prophylactic and therapeutic application
Experimental: Mice received a daily MB-dose of 5 mg/kg based on a daily drinking volume of ˜5-6 ml and a body weight of 25-35 g. The control group received drinking water with saccharin but without methylene blue.
Mice were euthanized and lungs were removed on day 3 post challenge with influenza H1N1 virus. These tissue samples were stored at <−60° C. until they were transferred into homogenization tubes containing 1 ml cell medium supplemented with antibiotics. The lungs were homogenized two times at 5000 rpm for twenty seconds with 10 seconds pause between the intervals with a tissue homogenizer. The infectious H1N1 virus titer in homogenized lung samples was determined by a TCID50 assay performed by titration on Madin-Darby Canine Kidney (MDCK) cells as described above.

Question: Which “viricidal efficacy, lung virus titer (TCID50 assay), expected” value does the source give for `Cc1cc2nc3c(=O)[nH]c(=O)nc-3n(C[C@H](O)[C@H](O)[C@H](O)CO)c2cc1C` [riboflavin, 7,8-dimethyl-10-[(2S,3S,4R)-2,3,4,5-tetrahydroxypentyl]benzo[g]pteridine-2,4-dione] here?
Answer: Analogous results are expected
